Some test systems named below: MALME-3M melanoma; OVCAR-4 ovarian; UACC-257 melanoma; K-562 leukemia; NCI/ADR-RES ovarian; SK-OV-3 ovarian; A549 NSCLC; TK-10 renal; HT29 colon; UACC-62 melanoma.
Common to all, as to assay: NCI anticancer screen, dose series, 48 h

Several values for one entry are separate records, joined by “and”; a condition that tells them apart may be missing. Equal values may be shown once.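 Results reflect a 48-hour exposure of cells in 96-well plates to compound at five concentrations. GI50: concentration for 50% inhibition of growth. TGI marks complete inhibition of growth.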 Some results are limits rather than exact numbers.

Turning to `O=C(O)c1ccc(CSc2nc3ccccc3[nH]2)cc1`, the GI50 with MALME-3M melanoma, with OVCAR-4 ovarian, in the assay with UACC-257 melanoma, in the assay on K-562 leukemia, in the assay with NCI/ADR-RES ovarian and with SK-OV-3 ovarian was greater than 100 µM each time. Moreover, the GI50 with A549 NSCLC, in the assay with TK-10 renal and with HT29 colon was greater than 100 µM in each case. The TGI in the assay with MALME-3M melanoma, in the assay with OVCAR-4 ovarian, in the assay with UACC-257 melanoma, in the assay on K-562 leukemia, in the assay on NCI/ADR-RES ovarian and with SK-OV-3 ovarian was greater than 100 µM throughout. Further, the TGI in the assay with A549 NSCLC, in the assay with TK-10 renal and in the assay on HT29 colon was greater than 100 µM each time.

For the molecule `CCCCCc1cc(/C=C2/N=C(c3ccc[nH]3)C=C2OC)[nH]c1C`, the TGI in the assay with MALME-3M melanoma amounted to 0.275 µM; in the assay with UACC-62 melanoma it was 0.03 µM; with OVCAR-4 ovarian, 0.351 µM; with UACC-257 melanoma, 0.855 µM; in the assay with K-562 leukemia, 0.259 µM; with NCI/ADR-RES ovarian, 1.14 µM. Further, the TGI in the assay on SK-OV-3 ovarian came to 1.13 µM; in the assay on A549 NSCLC it was 1.19 µM; in the assay with TK-10 renal, 1.29 µM; in the assay on HT29 colon, 0.143 µM.

Turning to `COc1cc(/C=C2\CCC/C(=C\c3cc(CN4CCCC4)c(O)c(OC)c3)C2=O)cc(CN2CCCC2)c1O`, the GI50 in the assay on MALME-3M melanoma was 2.73 µM; in the assay with UACC-62 melanoma, 3.45 µM; in the assay on OVCAR-4 ovarian, 5.93 µM; with UACC-257 melanoma, 5.29 µM; in the assay with K-562 leukemia it was 3 µM; in the assay on NCI/ADR-RES ovarian, 3.47 µM. Also, the GI50 in the assay with SK-OV-3 ovarian is 4.58 µM; in the assay on A549 NSCLC, 3.5 µM; in the assay on TK-10 renal, 4.36 µM; in the assay with HT29 colon it was 0.322 µM. Besides, the TGI was 6.41 µM in the assay on MALME-3M melanoma; 12.9 µM in the assay on UACC-62 melanoma; greater than 100 µM with OVCAR-4 ovarian; 19.6 µM with UACC-257 melanoma; 16.9 µM in the assay with K-562 leukemia; greater than 100 µM in the assay on NCI/ADR-RES ovarian. The TGI with SK-OV-3 ovarian turned out to be 16.5 µM; in the assay on A549 NSCLC, 12.8 µM; in the assay with TK-10 renal, 15.5 µM; in the assay with HT29 colon it was 1.78 µM.

On to `CC(C)c1cnc(-c2cc(Cl)ccc2F)cc1Nc1ccncc1C(=O)NC(CO)CO`, for which the GI50 is 17.2 µM in the assay with MALME-3M melanoma; 15.1 µM in the assay on UACC-62 melanoma; 13.7 µM in the assay on OVCAR-4 ovarian; 16.3 µM in the assay with UACC-257 melanoma; 12.3 µM with K-562 leukemia; 20.8 µM in the assay on NCI/ADR-RES ovarian. Further, the GI50 is 19.8 µM with SK-OV-3 ovarian, 11.1 µM in the assay on A549 NSCLC, 10.8 µM in the assay on TK-10 renal and 14.6 µM with HT29 colon. Moreover, the TGI with MALME-3M melanoma amounted to 34.4 µM; in the assay with UACC-62 melanoma it was 29 µM; with OVCAR-4 ovarian, 66.3 µM; with UACC-257 melanoma, 33.7 µM; with K-562 leukemia it was 46.5 µM; in the assay on NCI/ADR-RES ovarian, 63.2 µM. For the same molecule, the TGI in the assay on SK-OV-3 ovarian was 55.5 µM; with A549 NSCLC, 62.3 µM; in the assay with TK-10 renal, 56 µM; with HT29 colon it was 33.7 µM.

As to `CCCCCCCCCCCCC(O)C1CCC(C(O)CCCCC(O)CCCCCC2CC(CC(C)=O)C(=O)O2)O1` (centres undefined), the TGI with MALME-3M melanoma was 16.5 µM; with UACC-62 melanoma, 3.66 µM and 16.3 µM; with OVCAR-4 ovarian, 19.1 µM; with UACC-257 melanoma, 5.08 µM and 6.25 µM; in the assay on K-562 leukemia, 7.7 µM; in the assay with NCI/ADR-RES ovarian it was 2.3 µM. The TGI was 26 µM in the assay with SK-OV-3 ovarian; 18.7 µM with A549 NSCLC; 14.1 µM with TK-10 renal; 2.65 µM and 15.4 µM in the assay on HT29 colon. Also, the GI50 in the assay on UACC-62 melanoma is 1.38 µM; with UACC-257 melanoma, 1.13 µM; in the assay with K-562 leukemia, 1.35 µM; in the assay on A549 NSCLC it was 1.55 µM; in the assay with TK-10 renal, 2.4 µM; with HT29 colon, 1.37 µM.

Regarding `Cc1c(O)cccc1C(=O)N[C@@H](CSc1ccccc1)[C@H](O)CN1C[C@H]2CCCC[C@H]2C[C@H]1C(=O)NC(C)(C)C`, the GI50 in the assay on MALME-3M melanoma is 2.13 µM and 7.03 µM; with UACC-62 melanoma, 5.79 µM and 5.8 µM; with OVCAR-4 ovarian it was 5.97 µM and 5.96 µM; with UACC-257 melanoma it was 3.66 µM and 6.84 µM; in the assay on K-562 leukemia, 3.35 µM and 10.3 µM; in the assay with NCI/ADR-RES ovarian it was 4.87 µM and 6.17 µM. Moreover, the GI50 was 4.29 µM and 9.5 µM in the assay on SK-OV-3 ovarian; 3.01 µM and 4.94 µM with A549 NSCLC; 4.26 µM and 5.89 µM in the assay with TK-10 renal; 3.06 µM and 5.65 µM in the assay on HT29 colon. Further, the TGI was 8.41 µM and 18.6 µM in the assay with MALME-3M melanoma; 18.8 µM and 17.6 µM with UACC-62 melanoma; > 37.6 µM and 23.4 µM in the assay with OVCAR-4 ovarian; 13.8 µM and 24.7 µM in the assay on UACC-257 melanoma; > 100 µM and 31.3 µM with K-562 leukemia; 32.1 µM and 27.1 µM with NCI/ADR-RES ovarian. In addition, the TGI with SK-OV-3 ovarian is 23.9 µM and > 59.7 µM; in the assay on A549 NSCLC, 10.8 µM and 22.8 µM; in the assay on TK-10 renal, 23.6 µM and 24.5 µM; in the assay with HT29 colon, 12 µM and 19.9 µM.

`c1cc[n+](Cc2c3ccccc3cc3c2ccc2ccccc23)cc1`: the GI50 in the assay with MALME-3M melanoma was 1.56 µM; in the assay with UACC-62 melanoma, 1.92 µM; in the assay with OVCAR-4 ovarian it was 3.57 µM; with UACC-257 melanoma it was 2.34 µM; in the assay on K-562 leukemia it was 3.21 µM; with NCI/ADR-RES ovarian, greater than 100 µM. For the same molecule, the GI50 is 13.6 µM in the assay with SK-OV-3 ovarian, 7.31 µM in the assay on A549 NSCLC, 8.2 µM in the assay on TK-10 renal and 2.77 µM with HT29 colon. The TGI was 3.91 µM in the assay with MALME-3M melanoma; 3.93 µM with UACC-62 melanoma; 14.3 µM in the assay on OVCAR-4 ovarian; 5.48 µM in the assay with UACC-257 melanoma; 17.8 µM in the assay with K-562 leukemia; greater than 100 µM with NCI/ADR-RES ovarian. In addition, the TGI with SK-OV-3 ovarian amounted to 59.1 µM; with A549 NSCLC it was 27.7 µM; in the assay on TK-10 renal, 28.2 µM; in the assay with HT29 colon, 11.2 µM.

Take `CC(C)C[C@H](NC(=O)[C@@H](Cc1ccccc1)n1ccc(Nc2ccccc2)cc1=O)B(O)O`: the GI50 is 0.382 µM with MALME-3M melanoma; 0.333 µM in the assay with UACC-62 melanoma; 1.18 µM in the assay on OVCAR-4 ovarian; 0.404 µM with UACC-257 melanoma; 0.477 µM in the assay on K-562 leukemia; 13.4 µM with NCI/ADR-RES ovarian. The GI50 in the assay with SK-OV-3 ovarian is 0.653 µM; in the assay with A549 NSCLC, 0.525 µM; in the assay on TK-10 renal, 0.269 µM; in the assay with HT29 colon, 0.342 µM. Further, the TGI in the assay on MALME-3M melanoma is 2.48 µM; in the assay on UACC-62 melanoma, 1.41 µM; in the assay with OVCAR-4 ovarian, 21.3 µM; in the assay with UACC-257 melanoma, 2.48 µM; in the assay on K-562 leukemia, greater than 100 µM; with NCI/ADR-RES ovarian it was greater than 100 µM. Moreover, the TGI came to 18.8 µM with SK-OV-3 ovarian, 21.6 µM with A549 NSCLC, 0.98 µM in the assay on TK-10 renal and 15.5 µM in the assay on HT29 colon.

The record behind these values is PubChem BioAssay (NCI).
